Results taken from US10993935B2, “Compositions and methods for treatment of lung infections” (priority 2018, dated 2021).

What was measured:
P. aeruginosa biofilms [1] = test: Biofilm reduction assay (crystal violet); format: cell-based, Pseudomonas aeruginosa; details: PAO1, CF001, CF010; 24 h biofilms treated at 3×MIC
Protocol: (§1) FIGS. 3A-3B include graphs showing biofilm and cell viability reduction from treatment with TOB and/or RFX, where (FIG. 3A) biofilms were grown for 24 h in a 96-well plate and then treated with TOB, RFX, or TOB and RFX at a concentration of 3×MIC, or where (FIG. 3B) biofilms were grown for 24 h in a 96-well plate and then treated with TOB, RFX, or TOB and RFX at concentration of 3×MIC. Two-way ANOVA analysis was used with statistical significance set as a P value of <0.01 (****, P<0.0001; **, P<0.001; *, P<0.01).
Biofilm Reduction Assay. A biofilm reduction assay was used to determine the reduction of biofilms in P. aeruginosa strains by TOB and/or RFX. Briefly, biofilms were grown in a flat bottom 96-well microplate (Corning) using 200 μl LB of 1.0-1.5×10^5 inoculum of lab and clinical strains of non-mucoid and mucoid P. aeruginosa. After 24-30 h incubation at 37° C., the media was removed, and plates were washed with PBS. New media containing 1-5×MIC90 of TOB and/or RFX was added to the plate in a checkerboard pattern to determine synergy of biofilm reduction. After 24 h incubation at 37° C., the media was removed and 200 μl of 0.1% aqueous crystal violet was added and left at room temperature 0.5 h. […] The plates were then read via OD at 595 nm using SpectraMax i3x plate reader to compare biofilm dispersion between TOB and/or RFX. […]

P. aeruginosa biofilms [2] = test: Viable cell assay in preformed biofilms (MTT); format: cell-based, Pseudomonas aeruginosa; details: PAO1, CF001, CF010; 24 h biofilms treated at 3×MIC
Protocol: as §1
Viable Cell Assay. Viable cell counts were done to determine the reduction of viable cells in preformed biofilms treated with TOB and/or RFX. Briefly, following biofilm reduction protocol, biofilms were grown in a flat bottom 96-well microplate (Corning) using 200 μl LB of 1.0-1.5×10^5 inoculum of lab and clinical strains of non-mucoid and mucoid P. aeruginosa for 24 h at 37° C. After incubation, the media was removed, and plate was washed with PBS twice. New LB media containing 1-5×MIC90 of TOB and/or RFX was added to the plate in a checkerboard pattern. After 24 h growth at 37° C., the media was removed and replaced with methylthiazoltetrazolium (MTT; Sigma). After 1 h incubation, DMSO was added and plates were read via OD at 570 nm using SpectraMax i3x plate reader to determine viable cell differences between TOB and/or RFX. […]

## NC[C@H]1O[C@H](O[C@H]2[C@H](O)[C@@H](O[C@H]3O[C@H](CO)[C@@H](O)[C@H](N)[C@H]3O)[C@H](N)C[C@@H]2N)[C@H](N)C[C@@H]1O [TOB, tobramycin]
P. aeruginosa biofilms [1]
  reduction of preformed biofilm (biofilm aggregates): significantly reduced biofilm as compared to the untreated control
P. aeruginosa biofilms [2]
  viable cells in a preformed biofilm: significantly reduced the number of viable cells
